One assay concerns the target human LPA1 (Homo sapiens, UniProt Q92633). The experiment in a line: In vitro functional assay of lysophosphatidic acid receptor 1 activity (calcium flux). As to conditions: B103 cells stably expressing human LPA1; Fluo-4 NW calcium flux after lysophosphatidic acid (18:1) at EC80; compounds 100 pM to 10 μM; read-out: LPA1 IC50. The assay is classed as cell-based. In short, it runs like this: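 B103 cells stably expressing human LPA1 plated onto compound for 24 h at 37 °C, loaded with Fluo-4 NW dye, re-exposed to compound (30 min 37 °C plus 30 min room temp).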
(In general: Calcium flux is commonly read through the fluorescence of an indicator in the cells.)
Chain of human LPA1 (Q92633 whole entry): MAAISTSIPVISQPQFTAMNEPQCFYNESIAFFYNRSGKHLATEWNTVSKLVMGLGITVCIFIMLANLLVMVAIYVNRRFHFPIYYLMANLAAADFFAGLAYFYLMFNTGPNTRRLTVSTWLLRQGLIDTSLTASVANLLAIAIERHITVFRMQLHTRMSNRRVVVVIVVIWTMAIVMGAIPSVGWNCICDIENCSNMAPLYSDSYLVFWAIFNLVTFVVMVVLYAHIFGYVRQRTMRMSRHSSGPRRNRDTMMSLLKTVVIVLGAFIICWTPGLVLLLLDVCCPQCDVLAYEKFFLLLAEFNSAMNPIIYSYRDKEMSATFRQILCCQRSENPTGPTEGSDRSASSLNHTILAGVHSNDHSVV
In the case of `Cc1ccc(NC(=O)C2(c3ccccc3C(C)C)CC(N3CCC3=O)C2)c(OC(F)F)n1` (mixture of isomers) [Example 68, N-(2-(difluoromethoxy)-6-methylpyridin-3-yl)-1-(2-isopropylphenyl)-3-(2-oxoazetidin-1-yl)cyclobutane-1-carboxamide], the IC50 (commonly the concentration needed to halve the response being measured) fell in the range of 10 to 100 nM.

In the case of `COc1cc(CF)ccc1NC(=O)C1(c2ccccc2C(C)C)CNC(=O)C1` (centres unmarked) [Example 115, N-(4-(fluoromethyl)-2-methoxyphenyl)-3-(2-isopropylphenyl)-5-oxopyrrolidine-3-carboxamide], the IC50 was in the range of 100 to 1000 nM.

As for `COc1cc(C)ncc1NC(=O)C1(c2ccccc2C(C)C)COC1` [Example 36, 3-(2-isopropylphenyl)-N-(4-methoxy-6-methylpyridin-3-yl)oxetane-3-carboxamide], the IC50 was more than 1000 nM.

Take `CC(C)c1ccccc1C1(C(=O)Nc2ncc(Cl)cc2OC(F)F)CNC(=O)C1` (centres unmarked) [Example 10, N-(5-chloro-3-(difluoromethoxy)pyridin-2-yl)-3-(2-isopropylphenyl)-5-oxopyrrolidine-3-carboxamide]: the concentration for half-maximal inhibition (IC50) was in the range of 10 to 100 nM.

`CC(C)c1ccccc1C1(C(=O)Nc2ncc(Br)cc2OC(F)F)COC1` [Example 24, N-(5-bromo-3-(difluoromethoxy)pyridin-2-yl)-3-(2-isopropylphenyl)oxetane-3-carboxamide]: the IC50 fell in the range of 10 to 100 nM.

`COc1cc(C)ccc1NC(=O)C1(c2ccccc2C(C)C)CNC(=O)C1` (single isomer, unassigned) [Example 102-isomer B, 3-(2-isopropylphenyl)-N-(2-methoxy-4-methylphenyl)-5-oxopyrrolidine-3-carboxamide]: the IC50 is more than 1000 nM.

On to `Cc1ccc(NC(=O)C2(c3ccccc3C(C)C)CC(NC3CC3)C2)c(OC(F)F)n1` (single isomer, unassigned) [Example 40-isomer A, 3-(cyclopropylamino)-N-(2-(difluoromethoxy)-6-methylpyridin-3-yl)-1-(2-isopropylphenyl)cyclobutane-1-carboxamide], for which the IC50 was 100 to 1000 nM.

For the compound `Cc1ccc(NC(=O)C2(c3ccccc3C(C)C)CC(S(N)(=O)=O)C2)c(OC(F)F)n1` (mixture of isomers) [Example 69, N-(2-(difluoromethoxy)-6-methylpyridin-3-yl)-1-(2-isopropylphenyl)-3-sulfamoylcyclobutane-1-carboxamide], the 50% inhibitory concentration (IC50) is 10 to 100 nM.

Take `Cc1ccc(NC(=O)C2(c3ccccc3C(C)C)CC(CC#N)C2)c(OC(F)F)n1` (mixture of isomers) [Example 63, 3-(cyanomethyl)-N-(2-(difluoromethoxy)-6-methylpyridin-3-yl)-1-(2-isopropylphenyl)cyclobutane-1-carboxamide]: the IC50 is 100 to 1000 nM.

For `CCC1(O)CC(C(=O)Nc2ccc(C)nc2OC(F)F)(c2ccccc2C(C)C)C1` (centres unmarked) [Example 52, N-(2-(difluoromethoxy)-6-methylpyridin-3-yl)-3-ethyl-3-hydroxy-1-(2-isopropylphenyl)cyclobutane-1-carboxamide], the IC50 was 10 to 100 nM.

For `COc1ccc(NC(=O)C2(c3ccccc3C(C)C)CCC(S(=O)(=O)N(C)C)CC2)c(OC(F)F)n1` (mixture of isomers) [Example 98, N-(2-(difluoromethoxy)-6-methoxypyridin-3-yl)-4-(N,N-dimethylsulfamoyl)-1-(2-isopropylphenyl)cyclohexane-1-carboxamide], the IC50 lay in the range of 100 to 1000 nM.

In the case of `Cc1ccc(NC(=O)C2(c3ccccc3C(C)C)CC(Cn3ccnn3)C2)c(OC(F)F)n1` (centres unmarked) [Example 72, 3-((1H-1,2,3-triazol-1-yl)methyl)-N-(2-(difluoromethoxy)-6-methylpyridin-3-yl)-1-(2-isopropylphenyl)cyclobutane-1-carboxamide], the half-inhibitory concentration (IC50) was 10 to 100 nM.

Take `COc1cc(Cl)ccc1NC(=O)C1(c2ccccc2C(C)C)COC1` [Example 21, N-(4-chloro-2-methoxyphenyl)-3-(2-isopropylphenyl)oxetane-3-carboxamide]: the IC50 was in the range of 10 to 100 nM.

As for `COc1ccc(NC(=O)C2(c3ccccc3C(C)C)CCC(C#N)CC2)c(OC(F)F)n1` (mixture of isomers) [Example 95, 4-cyano-N-(2-(difluoromethoxy)-6-methoxypyridin-3-yl)-1-(2-isopropylphenyl)cyclohexane-1-carboxamide], the IC50 lay in the range of 10 to 100 nM.

As to `CC(C)c1ccccc1C1(C(=O)Nc2ccc(Br)cc2OC(F)F)COC1` [Example 16, N-(4-bromo-2-(difluoromethoxy)phenyl)-3-(2-isopropylphenyl)oxetane-3-carboxamide], the IC50 was less than 10 nM.

In the case of `CC(C)c1ccccc1C1(C(=O)Nc2cnc(Cl)cc2OC2CC2)COC1` [Example 32, N-(6-chloro-4-cyclopropoxypyridin-3-yl)-3-(2-isopropylphenyl)oxetane-3-carboxamide], the IC50 was 100 to 1000 nM.

For `Cc1ccc(NC(=O)C2(c3ccccc3C(C)C)CC(S(C)(=O)=O)C2)c(OC(F)F)n1` (centres unmarked) [Example 71, N-(2-(difluoromethoxy)-6-methylpyridin-3-yl)-1-(2-isopropylphenyl)-3-(methylsulfonyl)cyclobutane-1-carboxamide], the IC50 lay in the range of 100 to 1000 nM.

Regarding `COc1ccc(NC(=O)[C@]2(c3ccccc3C(C)C)C[C@@H](Cc3nnn[nH]3)C2)c(OC(F)F)n1` [Example 120, trans-3-((1H-tetrazol-5-yl)methyl)-N-(2-(difluoromethoxy)-6-methoxypyridin-3-yl)-1-(2-isopropylphenyl)cyclobutane-1-carboxamide], the IC50 is less than 10 nM.

As for `CC(C)c1ccccc1C1(C(=O)Nc2ccc(Cl)cn2)CC(O)(C(F)(F)C(=O)O)C1` (single isomer, unassigned) [Example 93-isomer B, 2-(3-((5-chloropyridin-2-y1)carbamoyl)-1-hydroxy-3-(2-isopropylphenyl)cyclobutyl)-2,2-difluoroacetic acid], the IC50 was in the range of 100 to 1000 nM.

For `COc1ccc(NC(=O)C2(c3ccccc3C(C)C)CCC3(CC2)NC(=O)NC3=O)c(OC(F)F)n1` (mixture of isomers) [Example 86, N-(2-(difluoromethoxy)-6-methoxypyridin-3-yl)-8-(2-isopropylphenyl)-2,4-dioxo-1,3-diazaspiro[4.5]decane-8-carboxamide], the IC50 lay within 100 to 1000 nM.

For `Cc1cc(OC(F)F)c(NC(=O)C2(c3ccccc3C(C)C)CC(O)(C(F)(F)C(=O)O)C2)cn1` (single isomer, unassigned) [Example 94-isomer B, 2-(3-((4-(difluoromethoxy)-6-methylpyridin-3-yl)carbamoyl)-1-hydroxy-3-(2-isopropylphenyl)cyclobutyl)-2,2-difluoroacetic acid], the IC50 lay in the range of 10 to 100 nM.

Take `CC(=O)N1CC2(C1)CC(C(=O)Nc1ccc(C)nc1OC(F)F)(c1ccccc1C(C)C)C2` [Example 74, 2-acetyl-N-(2-(difluoromethoxy)-6-methylpyridin-3-yl)-6-(2-isopropylphenyl)-2-azaspiro[3.3]heptane-6-carboxamide]: the IC50 is more than 1000 nM.

Consider `CC(C)c1ccccc1C1(C(=O)Nc2ccc(Cl)cn2)CC(O)(C(F)(F)C(=O)O)C1` (single isomer, unassigned) [Example 93-isomer A, 2-(3-((5-chloropyridin-2-yl)carbamoyl)-1-hydroxy-3-(2-isopropylphenyl)cyclobutyl)-2,2-difluoroacetic acid], for which the IC50 lay within 10 to 100 nM.

Regarding `CNS(=O)(=O)C1CC(C(=O)Nc2ccc(C)nc2OC(F)F)(c2ccccc2C(C)C)C1` (centres unmarked) [Example 70, N-(2-(difluoromethoxy)-6-methylpyridin-3-yl)-1-(2-isopropylphenyl)-3-(N-methylsulfamoyl)cyclobutane-1-carboxamide], the 50% inhibitory concentration (IC50) lay in the range of 10 to 100 nM.

Regarding `COc1cc(Br)cnc1NC(=O)C1(c2ccccc2C(C)C)COC1` [Example 23, N-(5-bromo-3-methoxypyridin-2-yl)-3-(2-isopropylphenyl)oxetane-3-carboxamide], the IC50 was in the range of 100 to 1000 nM.

As to `Cc1ccc(NC(=O)C2(c3ccccc3C(C)C)CC(CCO)C2)c(OC(F)F)n1` (mixture of isomers) [Example 49, N-(2-(difluoromethoxy)-6-methylpyridin-3-yl)-3-(2-hydroxyethyl)-1-(2-isopropylphenyl)cyclobutane-1-carboxamide], the IC50 was 10 to 100 nM.

With `Cc1ccc(NC(=O)C2(c3ccccc3C(C)C)CC(=O)N(C)C2)c(OC(F)F)n1` (centres unmarked) [Example 3, N-(2-(difluoromethoxy)-6-methylpyridin-3-yl)-3-(2-isopropylphenyl)-1-methyl-5-oxopyrrolidine-3-carboxamide], the IC50 was 10 to 100 nM.

As to `Cc1ccc(NC(=O)C2(c3ncccc3C(C)C)COC2)c(OC(F)F)n1` [Example 37, N-(2-(difluoromethoxy)-6-methylpyridin-3-yl)-3-(3-isopropylpyridin-2-yl)oxetane-3-carboxamide], the IC50 lay in the range of 100 to 1000 nM.

Regarding `Cc1ccc(NC(=O)C2(c3ccccc3C(C)C)CC(F)C2)c(OC(F)F)n1` (centres unmarked) [Example 62, N-(2-(difluoromethoxy)-6-methylpyridin-3-yl)-3-fluoro-1-(2-isopropylphenyl)cyclobutane-1-carboxamide], the IC50 was 100 to 1000 nM.

For `COc1ccc(NC(=O)C2(c3ccccc3C(C)C)CC(CC#N)C2)c(OC(F)F)n1` (centres unmarked) [Example 111, 3-(cyanomethyl)-N-(2-(difluoromethoxy)-6-methoxypyridin-3-yl)-1-(2-isopropylphenyl)cyclobutane-1-carboxamide], the IC50 is 10 to 100 nM.

With `CC(C)c1ccccc1C1(C(=O)Nc2ncc(Cl)cc2OC(F)F)COC1` [Example 22, N-(5-chloro-3-(difluoromethoxy)pyridin-2-yl)-3-(2-isopropylphenyl)oxetane-3-carboxamide], the IC50 was 10 to 100 nM.

The assay is the same for the next values; noted with them: LPA1 IC50, B103 cells stably expressing human LPA1; Fluo-4 NW calcium flux after lysophosphatidic acid (18:1) at EC80; compounds 100 pM to 10 μM.
As to `COc1ccc(NC(=O)C2(c3ccccc3C(C)C)CCNC(=O)C2)c(OC(F)F)n1` (centres unmarked) [Example 116, N-(2-(difluoromethoxy)-6-methoxypyridin-3-yl)-4-(2-isopropylphenyl)-2-oxopiperidine-4-carboxamide], the half-maximal inhibitory concentration (IC50) is 100 to 1000 nM.

Source of the values: US20250179045A1, “LPAR1 ANTAGONISTS AND USES THEREOF” (Contineum Therapeutics, Inc., priority 2021, published 2025).
